Results published in PubChem BioAssay AID248 (DTP/NCI, 2004).
Where “and” joins values, the source holds several entries; their conditions need not be identical. Identical values can stand only once. Toxic doses and inconclusive results are not listed. Rule as the data show it: active = T/C of 150% or more; inactive = T/C below 125%.

Tested on: L1210 leukemia ip in BDF1 mice, survival T/C
Test: NCI In Vivo Anticancer Drug Screen. Data for tumor model L1210 Leukemia (intraperitoneal) in B6D2F1 (BDF1) mice
Settings: endpoint: mean survival time, higher = longer survival
Outline: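 Ratio derived from survival: compound-dosed mice over vehicle-dosed mice, all bearing a transplantable tumor.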

[1] = dose: 100.0 mg/kg/injection, schedule: Q01DX009 (ip), vehicle: saline
[2] = dose: 200.0 mg/kg/injection, schedule: Q01DX009 (ip), vehicle: saline
[3] = dose: 100.0 mg/kg/injection, schedule: Q01DX001 (ip), vehicle: saline
[4] = dose: 200.0 mg/kg/injection, schedule: Q01DX001 (ip), vehicle: saline
[5] = dose: 400.0 mg/kg/injection, schedule: Q01DX001 (ip), vehicle: saline
[6] = dose: 100.0 mg/kg/injection, schedule: Q01DX001 (ip), vehicle: carboxymethylcellulose (CMC)
[7] = dose: 200.0 mg/kg/injection, schedule: Q01DX001 (ip), vehicle: carboxymethylcellulose (CMC)
[8] = dose: 400.0 mg/kg/injection, schedule: Q01DX001 (ip), vehicle: carboxymethylcellulose (CMC)
[9] = dose: 100.0 mg/kg/injection, schedule: Q04DX002 (ip), vehicle: saline
[10] = dose: 200.0 mg/kg/injection, schedule: Q04DX002 (ip), vehicle: saline
[11] = dose: 100.0 mg/kg/injection, schedule: Q01DX001 (ip), vehicle: other
[12] = dose: 200.0 mg/kg/injection, schedule: Q01DX001 (ip), vehicle: other
[13] = dose: 400.0 mg/kg/injection, schedule: Q01DX001 (ip), vehicle: other
[14] = dose: 12.5 mg/kg/injection, schedule: Q01DX009 (ip), vehicle: saline
[15] = dose: 25.0 mg/kg/injection, schedule: Q01DX009 (ip), vehicle: saline
[16] = dose: 50.0 mg/kg/injection, schedule: Q01DX009 (ip), vehicle: saline
[17] = dose: 100.0 mg/kg/injection, schedule: Q04DX003 (ip), vehicle: saline
[18] = dose: 100.0 mg/kg/injection, schedule: Q01DX001 (ip), vehicle: acetone
[19] = dose: 200.0 mg/kg/injection, schedule: Q01DX001 (ip), vehicle: acetone
[20] = dose: 400.0 mg/kg/injection, schedule: Q01DX001 (ip), vehicle: acetone

Measured: T/C

Cc1cccc(C)c1NC(=S)N1CCOCC1
inactive: dose: 100.0 mg/kg/injection, schedule: Q01DX009 (ip), vehicle: other 106 % of control | dose: 200.0 mg/kg/injection, schedule: Q01DX009 (ip), vehicle: other 116 % of control | dose: 400.0 mg/kg/injection, schedule: Q01DX009 (ip), vehicle: other 122 % of control

Cc1ccc([N+](=O)[O-])cc1NC(=O)OCCOc1ccccc1
inactive: [1] 90 % of control | [2] 103 % of control | dose: 400.0 mg/kg/injection, schedule: Q01DX009 (ip), vehicle: saline 92 % of control

CCc1cc2c(cc1C(=O)/C=C\c1cccc3ccccc13)C(C)(C)CCC2(C)C
inactive: dose: 25.0 mg/kg/injection, schedule: Q04DX002 (ip), vehicle: saline with Tween-80 89 % of control | dose: 100.0 mg/kg/injection, schedule: Q04DX002 (ip), vehicle: saline with Tween-80 89 % of control

COc1ccc(CCN(C)C(c2ccccc2)c2ccccc2)cc1OC
inactive: [3] 100 % of control | [4] 96 % of control | [5] 104 % of control

CCCCSCCN
inactive: dose: 75.0 mg/kg/injection, schedule: Q01DX009 (ip), vehicle: Klucel (hydroxypropylcellulose) (HPC) 95 % of control | dose: 150.0 mg/kg/injection, schedule: Q01DX009 (ip), vehicle: Klucel (hydroxypropylcellulose) (HPC) 93 % of control

O=C(/C=C/c1cccc(Cl)c1)c1ccc(Cl)cc1
inactive: dose: 25.0 mg/kg/injection, schedule: Q01DX009 (ip), vehicle: saline with Tween-80 95 % of control and 96 % of control | dose: 25.0 mg/kg/injection, schedule: Q04DX003 (ip), vehicle: carboxymethylcellulose (CMC) 95 % of control and 103 % of control | dose: 50.0 mg/kg/injection, schedule: Q01DX009 (ip), vehicle: saline with Tween-80 93 % of control and 95 % of control | dose: 50.0 mg/kg/injection, schedule: Q04DX003 (ip), vehicle: carboxymethylcellulose (CMC) 105 % of control and 89 % of control | [6] 94 % of control | dose: 100.0 mg/kg/injection, schedule: Q01DX009 (ip), vehicle: carboxymethylcellulose (CMC) 86 % of control | dose: 100.0 mg/kg/injection, schedule: Q01DX009 (ip), vehicle: saline with Tween-80 92 % of control and 91 % of control | dose: 100.0 mg/kg/injection, schedule: Q04DX002 (ip), vehicle: carboxymethylcellulose (CMC) 92 % of control and 100 % of control | [7] 92 % of control | dose: 200.0 mg/kg/injection, schedule: Q01DX009 (ip), vehicle: carboxymethylcellulose (CMC) 90 % of control | dose: 200.0 mg/kg/injection, schedule: Q04DX002 (ip), vehicle: carboxymethylcellulose (CMC) 100 % of control and 107 % of control | dose: 200.0 mg/kg/injection, schedule: Q04DX003 (ip), vehicle: carboxymethylcellulose (CMC) 96 % of control | [8] 92 % of control | dose: 400.0 mg/kg/injection, schedule: Q04DX002 (ip), vehicle: carboxymethylcellulose (CMC) 100 % of control and 102 % of control | dose: 400.0 mg/kg/injection, schedule: Q04DX003 (ip), vehicle: carboxymethylcellulose (CMC) 91 % of control

Cn1ncc2cncnc21
inactive: [3] 103 % of control | [4] 103 % of control | [5] 103 % of control

ClCC(Br)CBr (stereo not drawn)
inactive: dose: 75.0 mg/kg/injection, schedule: Q01DX001 (ip), vehicle: saline 106 % of control | dose: 150.0 mg/kg/injection, schedule: Q01DX001 (ip), vehicle: saline 104 % of control

CCCCC(=O)N1C(C)CCC1C (stereo not drawn)
inactive: [9] 105 % of control | [10] 88 % of control

C1=CC2CCC1CC2c1ccccc1 (stereo not drawn)
inactive: [3] 104 % of control | [4] 105 % of control | [5] 114 % of control

Cc1ccnc(NC2=CC(=O)C(=O)c3ccccc32)c1
inactive: [11] 93 % of control | [12] 95 % of control | [13] 103 % of control

O=C(CBr)c1ccc2cc(Br)c3ccccc3c2c1
inactive: dose: 55.0 mg/kg/injection, schedule: Q01DX Z (ip), vehicle: methylcellulose (MC) 90 % of control | dose: 83.0 mg/kg/injection, schedule: Q01DX Z (ip), vehicle: methylcellulose (MC) 94 % of control | dose: 125.0 mg/kg/injection, schedule: Q01DX Z (ip), vehicle: methylcellulose (MC) 102 % of control

NCCCC1C(CN)C2CC1C1C3CCC(C3)C21 (stereo not drawn)
inactive: dose: 3.12 mg/kg/injection, schedule: Q04DX003 (ip), vehicle: saline 100 % of control | dose: 6.25 mg/kg/injection, schedule: Q04DX003 (ip), vehicle: saline 100 % of control | [14] 106 % of control | dose: 12.5 mg/kg/injection, schedule: Q04DX003 (ip), vehicle: saline 97 % of control | [15] 110 % of control | dose: 25.0 mg/kg/injection, schedule: Q04DX003 (ip), vehicle: saline 97 % of control and 103 % of control | [16] 106 % of control | dose: 50.0 mg/kg/injection, schedule: Q04DX003 (ip), vehicle: saline 105 % of control | [17] 98 % of control

O=C1C(=O)c2cc(Br)ccc2-c2ccc(Br)cc21
inactive: dose: 50.0 mg/kg/injection, schedule: Q01DX001 (ip), vehicle: carboxymethylcellulose (CMC) 107 % of control | [6] 107 % of control | [7] 100 % of control | [8] 89 % of control

O=c1oc2ccc(N=Cc3ccc4c(c3)OCO4)cc2c2ccccc12
inactive: [11] 91 % of control | [12] 93 % of control | [13] 93 % of control

CCOC(=O)CC(CC(=O)OCC)NC(=O)c1ccc(N(C)Cc2ccccc2)cc1
inactive: [6] 107 % of control | [7] 108 % of control | [8] 105 % of control

COc1cccc(NC(=S)NC(Cc2ccccc2)c2ccccc2)c1 (stereo not drawn)
inactive: dose: 100.0 mg/kg/injection, schedule: Q04DX002 (ip), vehicle: Klucel (hydroxypropylcellulose) (HPC) 94 % of control | dose: 200.0 mg/kg/injection, schedule: Q04DX002 (ip), vehicle: Klucel (hydroxypropylcellulose) (HPC) 101 % of control | dose: 400.0 mg/kg/injection, schedule: Q04DX002 (ip), vehicle: Klucel (hydroxypropylcellulose) (HPC) 97 % of control

CCCCC[CH2][Sn]([CH2]C)([CH2]C)[CH2]C
inactive: [9] 93 % of control | [10] 93 % of control

CCCCNc1nc(N)nc(Nc2ccc(Br)cc2)c1N=O
inactive: [18] 103 % of control | dose: 100.0 mg/kg/injection, schedule: Q04DX003 (ip), vehicle: acetone 93 % of control | [19] 100 % of control | dose: 200.0 mg/kg/injection, schedule: Q04DX003 (ip), vehicle: acetone 94 % of control | [20] 106 % of control | dose: 400.0 mg/kg/injection, schedule: Q04DX003 (ip), vehicle: acetone 100 % of control

O=c1c2ccccc2sc2c(CO)ccc(NCCN3CCCCC3)c12
inactive: dose: 50.0 mg/kg/injection, schedule: Q01DX009 (ip), vehicle: Klucel (hydroxypropylcellulose) (HPC) 99 % of control | dose: 100.0 mg/kg/injection, schedule: Q01DX009 (ip), vehicle: Klucel (hydroxypropylcellulose) (HPC) 96 % of control | dose: 200.0 mg/kg/injection, schedule: Q01DX009 (ip), vehicle: Klucel (hydroxypropylcellulose) (HPC) 120 % of control

COC(Cl)C(Cl)(Cl)Cl (stereo not drawn)
inactive: [16] 93 % of control | [18] 103 % of control | [1] 88 % of control | [17] 103 % of control | [19] 90 % of control | [2] 91 % of control | dose: 200.0 mg/kg/injection, schedule: Q04DX003 (ip), vehicle: saline 100 % of control | [20] 92 % of control

CC(=O)OC1C(CO)OC2C1OC1=NC(N)=NCN12 (stereo not drawn)
inactive: dose: 1.56 mg/kg/injection, schedule: Q01DX009 (ip), vehicle: saline 102 % of control and 119 % of control | dose: 3.12 mg/kg/injection, schedule: Q01DX009 (ip), vehicle: saline 102 % of control | dose: 6.25 mg/kg/injection, schedule: Q01DX009 (ip), vehicle: saline 95 % of control and 98 % of control | [14] 96 % of control and 98 % of control | [15] 96 % of control | [16] 100 % of control and 91 % of control | [1] 104 % of control and 91 % of control | [2] 107 % of control and 109 % of control
